Laboratory results from paper PMC8684484, “The assessment of Pseudomonas aeruginosa lectin LecA binding characteristics of divalent galactosides using multiple techniques” (Glycobiology, 2021).

Assays:
[1] = target: T1, Maclura pomifera Lectin (MPL) (Maclura pomifera, UniProt P18674); test: ACE selectivity experiment with MPL as binding competitor; conditions: mixture of LecA and MPL; 1 mM of 1 or 20 μM of 2 in BGE
T1 construct: purchased Vector Laboratories (San Francisco, CA, USA)
Protocol: A mixture of LecA and MPL was analyzed by ACE, and affinity studies were carried out by adding the carbohydrates 1 and 2 to the BGE.
CE analyses were carried out using an Agilent 7100 instrument (Agilent technologies, USA). Bare fused-silica capillaries, with a 100 μm internal diameter, 365 μm outer diameter and a 50 cm total length, were from Biotaq (Gaithersburg, MD, USA). The detection window of the capillary was created at 10 cm from the outlet of the capillary. Hydrodynamic injections were performed at 17 mbar for 4 s, by injecting LecA or MPL (10 μM). The separation voltage was set at −10 kV and the caplillary temperature was maintained at 25°C during analysis. Ultraviolet detection was performed from 190 nm to 280 nm, but data recorded at 214 nm were used in this study. The BGE for the analysis of the lectins was potassium phosphate prepared by dissolving the appropriate amount of compounds in water and adjusting the pH with a sodium hydroxide solution. Capillaries were coated with Ultra Trol LN. Stable currents of 45 μA were observed during the affinity measurements with optimum buffer conditions (25 mM KH2PO4 at pH 7).
In order to study the affinity of LecA toward inhibitors, LecA was injected and carbohydrate inhibitors were added to the BGEs. BGEs were prepared containing 1 mM of compound 1, 20 μM of compound 2, or without carbohydrate. […]

LecA [2] = target: T2, LecA (Pseudomonas aeruginosa, UniProt Q05097); test: Fluorescence-based thermal shift assay (TSA), Sypro orange; assay type: binding; conditions: ligand 500 μM; for Tm of LecA: no ligand 71.7
T2 construct: purchased Sigma–Aldrich (Steinheim, Germany)
Protocol: As ligand binding is known to shift the melting point of proteins in a ligand concentration dependent manner, we performed the TSA experiments with two different concentrations of LecA (0.5 and 1 mg/mL) containing the fluorescent dye sypro orange. […] Therefore, we selected a fixed concentration of 1 mg/mL for the subsequent experiments. […] Divalent 2 stabilizes LecA by more than 11°C at a concentration of 20 μM (Figure 7).
TSA was performed using a standard real-time PCR instrument. To monitor protein unfolding, the fluorescent dye Sypro orange was used. Sypro orange is an environmentally sensitive dye (Thermo Fischer 5000x in DMSO). The unfolding process exposes the hydrophobic region of proteins and results in a large increase in fluorescence, which is used to monitor the protein-unfolding transition ([Lo et al. 2004]). The TSA was performed with a BioRad CFX96 real-time PCR machine, and analysis for binding induced shifts in thermal transition was performed with Bio-Rad CFX Manager 3.1 Software provided by the manufacturer (BioRad, Hercules, CA, USA).
Galactose based inhibitors specifically bind to the binding pocket of the lectin. Ligands could stabilize LecA (0.5 and 1 mg/mL) upon binding and therefore the protein Tm might increase. The shift in Tm with an addition of the ligand (ΔTm) serves as a qualitative measure of protein stability and allows to determine whether a protein–ligand binding event occurs. We here show the effect of different carbohydrates on the thermal denaturation of LecA. Sypro orange conc, used: 320× from commercial 5000×).

LecA [3] = target: T2, LecA; test: Native ESI-MS occupancy of the LecA tetramer; assay type: binding; conditions: ligand 600 μM, LecA 10 μM; estimated from MS intensities
Protocol: At the high concentration of monovalent compound 1 (600 μM) incubated with LecA (10 μM), a varying number of binding pockets of the tetrameric lectin were occupied by the monovalent ligand indicated by four different peaks in close proximity (Figure 8b). At these concentrations, an estimated number of copies of LecA of 8% remains fully unoccupied, 18% has one pocket occupied, 26% has two pockets occupied, 27% has three pockets occupied and 21% is fully occupied. We used the intensity values as determined by mass spectrometry as a proxy of their abundances in solution to calculate the occupancy values, for which previously it was shown that there is good correlation ([Seo et al. 2016]).
At a low (substoichiometric) concentration of divalent compound 2 (2 μM), 3 m/z peaks were observed that correspond to unbound LecA (estimated 6%), LecA bound to one compound 2 (estimated 39%) and LecA bound to two of the divalent ligand 2 (estimated 55%) (Figure 8c). […] As no peaks were detected corresponding to a single or triple binding pockets of the tetrametric lectin, excellent support is provided for the effective divalent binding of our molecule at reasonable concentrations.
To investigate the interaction between LecA and compounds 1 and 2, we incubated these compounds with LecA and transferred the produced complex into a 150 mM ammonium acetate solution (pH 7.5) by applying 10 μM of the protein ligand complex in a ratio of 1:1 on a pre-equilibrated 6-kDa Micro Bio-Spin column (Bio-Rad). The protein was eluted by centrifugation at 1,000 × g and 4°C. MS measurements were performed in positive ion mode using an Electrospray Ionization Time-of-Flight instrument (LC-T; Micromass, Manchester, UK) equipped with a Z-spray nanoelectrospray ionization source. Samples were sprayed from in-house prepared borosilicate glass capillaries (Kwik-Fil; World Precision Instruments, Sarasota, FL) prepared on a P-97 puller (Sutter Instruments, Novato, CA, USA) and coated with a thin layer of gold by using an Edwards Scan coat six Pirani 501 sputter coater (Edwards Laboratories, Milpitas, CA, USA). Instrument settings were adjusted for optimal transmission of high mass ions. A capillary voltage of 1300 V was used, in combination with a sampling cone voltage of 60 V. The source backing pressure was elevated to approximately 6.7 mbar in order to promote collisional cooling. All TOF data were mass calibrated by using an aqueous solution of cesium iodide (25 mg·mL^−1) and interpreted manually using MassLynx software (Waters, version 4.1).

LecA [4] = target: T2, LecA; test: Affinity capillary electrophoresis (ACE), direct binding, μeff shift of LecA with carbohydrate in BGE
Protocol: For affinity studies, two different LecA ligands were used. The first was the carboxylated galactoside (1). This was used as the reference monovalent ligand and its negatively charged carboxylate increases the chances of a protein shift in CE where charges are the important mobility determinant. Furthermore we used the bivalent carbohydrate (2), previously optimized for bivalent binding ([Yu et al. 2019b]). These glycoligands were added to the optimized CE background electrolyte (BGE) and the protein LecA was injected. For KD determination the BGE containing increasing concentrations of carbohydrate 1 or carbohydrate 2 were prepared and used for the analysis of LecA (10 μM). […] For each carbohydrate and each concentration, the difference of the measured μeff of LecA with the μeff acquired without carbohydrate in the BGE, was determined. […]
CE analyses were carried out using an Agilent 7100 instrument (Agilent technologies, USA). […] Ultraviolet detection was performed from 190 nm to 280 nm, but data recorded at 214 nm were used in this study. […]
BGEs containing increasing concentrations of compound 1 and/or compound 2 were prepared at the pH for which μeff shifts were observed and used for KD determination. For each carbohydrate and each studied concentration, the difference of the measured μeff of LecA with the μeff obtained without carbohydrate was determined. […]

LecA [5] = target: T2, LecA; test: Bio-layer interferometry (BLI), biotinylated ligand on streptavidin sensor; assay type: binding; conditions: immobilized ligand
Protocol: (§1) The biotinylated galactoside 3 (Figure 5) was immobilized on a streptavidin coated sensor. […] This is likely due to the well-known low affinity of monovalent ligands for most lectins even though the presentation of the ligand on the chip was also multivalent, but apparently not matching the distances between binding sites. Next, the binding properties of the divalent biotinylated 4 with the mentioned lectins were evaluated. […] Indeed, during the dissociation step, the signal only partially decreases down to the baseline and this lack of full dissociation indicates high affinity. Using this setup, kinetic parameters of the interaction were determined for the divalent galactoside to evaluate whether the divalent binding mode of this ligand influences the lectin–ligand kinetics. By fitting the sensorgrams with a global model ([…]), association (ka or kon) and dissociation (kd or koff) constants were determined and the KD was calculated from the ratio of kd over the ka while the residence time (τ) was derived from 1/kd. […] The same was true for compound 4 and lectins MPL and JIL.
(§2) BLI measurements were carried out using an Octet RED 384 instrument (ForteBio). Biosensors were transferred into fresh assay buffer for 180 s to collect a baseline read. Compound 3 and compound 4 were immobilized on streptavidin (SA)-functionalized biosensors to maximum levels by incubation for 900 s at 1 μM ([Guo et al. 2018]). For each set of biosensors, an 180 s baseline in buffer alone was acquired followed by an 1800 s association step and an 1800 s dissociation step. All experiments were carried out using PBS (10 mM phosphate, 150 mM NaCl, pH 7.4) as the assay buffer at 298 K. Data were processed and analyzed and KD values were determined using the global fitting procedures as implemented in Octet® system Data Analysis Software 9.0.0.48 (Pall ForteBio LLC, Menlo Park, CA, USA). Kinetic responses were fitted to a 1-site binding model to obtain values for association (kon) and dissociation (koff) rate constants. The KD derived from kinetic fitting was calculated as koff/kon.

MPL = target: T3, MPL (Maclura pomifera, UniProt P18674); test: as above; assay type: binding; conditions: immobilized ligand
T3 construct: purchased Vector Laboratories (San Francisco, CA, USA)
Protocol: as §1, §2

JIL (Jacalin lectin) = target: T4, JIL (Jacalin lectin) (Artocarpus integer, UniProt P18670); test: as above; assay type: binding, Jackfruits; conditions: immobilized ligand
T4 construct: purchased Sigma–Aldrich (Steinheim, Germany)
Protocol: as §1
BLI measurements were carried out using an Octet RED 384 instrument (ForteBio). Biosensors were transferred into fresh assay buffer for 180 s to collect a baseline read. […] The KD derived from kinetic fitting was calculated as koff/kon.

T2 sequence (Q05097 2-122): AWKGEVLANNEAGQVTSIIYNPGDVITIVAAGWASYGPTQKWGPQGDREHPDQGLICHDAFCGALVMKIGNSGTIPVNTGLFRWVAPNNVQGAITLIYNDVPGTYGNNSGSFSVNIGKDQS
T4 sequence (P18670 whole entry): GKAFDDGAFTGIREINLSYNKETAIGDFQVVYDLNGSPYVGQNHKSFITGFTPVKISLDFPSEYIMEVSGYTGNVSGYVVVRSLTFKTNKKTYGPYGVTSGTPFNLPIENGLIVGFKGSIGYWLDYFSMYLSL
T4 sequence (P18673 whole entry, further chain): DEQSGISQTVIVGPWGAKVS
T3 sequence (P18674 whole entry): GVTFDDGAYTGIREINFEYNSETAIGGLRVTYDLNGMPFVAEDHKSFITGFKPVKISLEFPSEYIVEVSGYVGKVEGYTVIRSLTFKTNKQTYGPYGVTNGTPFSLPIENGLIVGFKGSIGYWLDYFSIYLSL
T3 sequence (P18676 whole entry partner): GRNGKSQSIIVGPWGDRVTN
T1 sequence (P18674 whole entry): as the sequence (P18674 whole entry) above

Question: With `O=C(O)CO[C@@H]1O[C@H](CO)[C@H](O)[C@H](O)[C@H]1O` [Compound 1] as the molecule, how does the “μeff shift of MPL with carbohydrate in BGE” value [1] read?
Answer: Its value is “sizeable shift”.

Question: What about the “Tm of LecA” value (LecA [2]) of the same molecule?
Answer: Its value is 74.0 °C.

Question: And the LecA fully occupied (LecA [3])?
Answer: Its LecA fully occupied is 21%.

Question: What about the LecA fully unoccupied (LecA [3]) of the same molecule?
Answer: The LecA fully unoccupied was 8%.

Question: And the “LecA with one pocket occupied” value (LecA [3])?
Answer: The value was 18%.

Question: What about the “LecA with three pockets occupied” value (LecA [3]) of the same molecule?
Answer: Its value is 27%.

Question: What about the “LecA with two pockets occupied” value (LecA [3]) of the same molecule?
Answer: Its value is 26%.

Question: What about the Kd (LecA [4]) of the same molecule?
Answer: Its Kd is 27 µM.

Question: And the “μeff shift of LecA with carbohydrate in BGE” value (LecA [4]; mixture of LecA and MPL, 1 mM of 1 or 20 μM of 2 in BGE)?
Answer: Its value is “sizeable shift”.

Question: With `O=C(CCCC[C@@H]1SC[C@@H]2NC(=O)N[C@@H]21)NCCCCCC(=O)NCCCO[C@@H]1O[C@H](CO)[C@H](O)[C@H](O)[C@H]1O` [Compound 3] as the molecule, how does the BLI signal (LecA [5]; LecA at 1 μM) read?
Answer: Its BLI signal is “no detectable signal”.

Question: And the “BLI association and dissociation” value (LecA [5]; LecA up to 10 μM)?
Answer: Its value is “no significant association and dissociation phenomena”.

Question: And the BLI signal (MPL; MPL at 1 μM)?
Answer: Its BLI signal is “no detectable signal”.

Question: And the “BLI association and dissociation” value (MPL; MPL up to 10 μM)?
Answer: The value was “no significant association and dissociation phenomena”.

Question: What about the BLI signal (JIL (Jacalin lectin); JIL at 1 μM) of the same molecule?
Answer: Its BLI signal is “no detectable signal”.

Question: What about the “BLI association and dissociation” value (JIL (Jacalin lectin); JIL up to 10 μM) of the same molecule?
Answer: The value was “no significant association and dissociation phenomena”.

Question: Which results are given for `OC[C@H]1OC(O)[C@@H](O)[C@@H](O)[C@@H]1O` (stereo partly drawn) [D-Mannose, D-mannose]?
Answer: stabilization of LecA (ΔTm) (LecA [2]; LecA 1 mg/mL): did not stabilize LecA at all; Tm of LecA (LecA [2]): 71.7 °C
